Data: publication PMC3739326 (The Biochemical journal, 2011)

Tests used:
[1] = biological target: GST–TTBK2-(1–450) wild-type (Homo sapiens, UniProt Q6IQ55); test: TTBK2 peptide kinase assay; assay type: biochemical
[2] = system: TTBK2[R181A or R181E] or TTBK2[A184G or A184E] mutants, GST–TTBK2-(1–450); test: TTBK2 peptide kinase assay with phosphate-priming groove mutants; assay type: biochemical, human; details: read-out: Km of peptide phosphorylation by TTBK2 mutants, 0.1 mM [γ-32P]ATP, 20 min at 30 °C, non-linear regression
[3] = system: lymphoblasts from SCA11-affected individuals; details: cycloheximide as inhibitor of nonsense-mediated decay; cited from earlier work

Chain of GST–TTBK2-(1–450) wild-type (Q6IQ55 1-450): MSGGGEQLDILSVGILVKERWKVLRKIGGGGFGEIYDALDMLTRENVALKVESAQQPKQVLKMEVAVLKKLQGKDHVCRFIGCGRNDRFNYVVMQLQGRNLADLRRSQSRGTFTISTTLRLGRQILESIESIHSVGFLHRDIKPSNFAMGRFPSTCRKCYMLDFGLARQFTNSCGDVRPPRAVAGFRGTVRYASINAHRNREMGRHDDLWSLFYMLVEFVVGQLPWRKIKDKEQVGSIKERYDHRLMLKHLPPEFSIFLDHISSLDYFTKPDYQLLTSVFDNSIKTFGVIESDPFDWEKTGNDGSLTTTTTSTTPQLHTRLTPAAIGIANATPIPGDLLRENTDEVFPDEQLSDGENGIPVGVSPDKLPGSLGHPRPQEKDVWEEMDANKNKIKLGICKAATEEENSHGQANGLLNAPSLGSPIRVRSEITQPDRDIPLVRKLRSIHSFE

Molecule: RRKDLHDDEEDEAMSIYpA [TTBKtide]
- decrease of Km value by introducing a phosphotyrosine at the +2 position ([1]; relative to CK1tide): approximately 8 fold
- Vmax of peptide phosphorylation by TTBK2 ([1]; wild-type TTBK2, 0.1 mM [γ-32P]ATP, 20 min at 30 °C, non-linear regression): 76 units/mg
- Km [2]: 100 to 150 µM

Molecule: RRKDLHDDEEDEAMS*ITA [CK1tide, reference compound]
- peptide phosphorylation by TTBK2 (in words) ([1]; TTBK2-(1–450)): phosphorylates CK1tide specifically at this serine residue

Molecule: C[C@@H]1C[C@@H]([C@H](O)CC2CC(=O)NC(=O)C2)C(=O)[C@@H](C)C1 [cycloheximide]
- TTBK2 mRNA level [3]: increased TTBK2 mRNA to levels that are similar in the normal transcript
